Test results published in the supplement of paper PMC10307832.

Columns and labels:
Test in all cases: relative viability (nuclei count vs DMSO), 5 days (fraction); higher = more cells survive
Dovitinib + Dasatinib = compound: CN1CCN(c2ccc3nc(-c4c(N)c5c(F)cccc5[nH]c4=O)[nH]c3c2)CC1 [Dovitinib] + Cc1nc(Nc2ncc(C(=O)Nc3c(C)cccc3Cl)s2)cc(N2CCN(CCO)CC2)n1 [Dasatinib] (partner 0.075 µM)
Summary of the method: (§1)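 Dosing by pin tool came one day after lung cancer cell lines were seeded in 1536-well plates, using either one drug or a fixed anchor-drug dose plus five library-drug doses (not always all listed) in √10 steps. After 5 days, nuclei were counted on 4× images. Relative viability is treated-well nuclei count divided by vehicle-well nuclei count, and values are medians of duplicate plates.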

Dovitinib + Pemetrexed = compound: CN1CCN(c2ccc3nc(-c4c(N)c5c(F)cccc5[nH]c4=O)[nH]c3c2)CC1 [Dovitinib] + Nc1nc2[nH]cc(CCc3ccc(C(=O)N[C@@H](CCC(=O)O)C(=O)O)cc3)c2c(=O)[nH]1 [Pemetrexed] (partner 0.2 µM)
Summary of the method: as §1

Dovitinib + Palbociclib = compound: CN1CCN(c2ccc3nc(-c4c(N)c5c(F)cccc5[nH]c4=O)[nH]c3c2)CC1 [Dovitinib] + CC(=O)c1c(C)c2cnc(Nc3ccc(N4CCNCC4)cn3)nc2n(C2CCCC2)c1=O [Palbociclib] (partner 0.5 µM)
Summary of the method: as §1

Dovitinib + Vorinostat = compound: CN1CCN(c2ccc3nc(-c4c(N)c5c(F)cccc5[nH]c4=O)[nH]c3c2)CC1 [Dovitinib] + O=C(CCCCCCC(=O)Nc1ccccc1)NO [Vorinostat] (partner 1 µM)
Summary of the method: as §1

Cell Line | relative viability (Dovitinib + Dasatinib; first compound 0.02 µM) | relative viability (Dovitinib + Dasatinib; first compound 0.06325 µM) | relative viability (Dovitinib + Dasatinib; first compound 0.2 µM) | relative viability (Dovitinib + Dasatinib; first compound 0.6325 µM) | relative viability (Dovitinib + Dasatinib; first compound 2 µM) | relative viability (Dovitinib + Pemetrexed; first compound 0.02 µM) | relative viability (Dovitinib + Pemetrexed; first compound 0.06325 µM) | relative viability (Dovitinib + Pemetrexed; first compound 0.2 µM) | relative viability (Dovitinib + Pemetrexed; first compound 0.6325 µM) | relative viability (Dovitinib + Pemetrexed; first compound 2 µM) | relative viability (Dovitinib + Palbociclib; first compound 0.02 µM) | relative viability (Dovitinib + Palbociclib; first compound 0.06325 µM) | relative viability (Dovitinib + Palbociclib; first compound 0.2 µM) | relative viability (Dovitinib + Palbociclib; first compound 0.6325 µM) | relative viability (Dovitinib + Palbociclib; first compound 2 µM) | relative viability (Dovitinib + Vorinostat; first compound 0.02 µM) | relative viability (Dovitinib + Vorinostat; first compound 0.06325 µM) | relative viability (Dovitinib + Vorinostat; first compound 0.2 µM) | relative viability (Dovitinib + Vorinostat; first compound 0.6325 µM) | relative viability (Dovitinib + Vorinostat; first compound 2 µM)
PC-3 [JPC-3] | 1.03 | 0.999 | 0.967 | 1 | 0.986 | 1.12 | 1.12 | 1.16 | 1.3 | 1.21 | 0.518 | 0.58 | 0.55 | 0.555 | 0.517 | 0.888 | 0.77 | 0.948 | 0.945 | 0.914
PC-14 | 0.257 | 0.273 | 0.238 | 0.3 | 0.331 | 0.128 | 0.134 | 0.121 | 0.141 | 0.132 | 0.461 | 0.622 | 0.572 | 0.467 | 0.537 | 0.771 | 0.938 | 0.778 | 0.694 | 0.757
RERF-LC-KJ | 0.842 | 0.842 | 0.998 | 0.765 | 0.915 | 0.47 | 0.49 | 0.483 | 0.475 | 0.47 | 1.09 | 1 | 1.08 | 1.1 | 1.01 | 0.654 | 0.681 | 0.761 | 0.667 | 0.685
SK-LU-1 | 0.167 | 0.176 | 0.21 | 0.185 | 0.19 | 0.985 | 0.92 | 0.913 | 1 | 1.02 | 0.39 | 0.372 | 0.358 | 0.481 | 0.38 | 0.753 | 0.913 | 0.759 | 0.715 | 0.805
SK-MES-1 | 0.349 | 0.426 | 0.417 | 0.414 | 0.477 | 0.941 | 0.958 | 0.972 | 0.966 | 1.03 | 0.35 | 0.378 | 0.306 | 0.37 | 0.374 | 1.08 | 1.13 | 1.17 | 1.09 | 1.12
SW 900 | 0.741 | 0.586 | 0.548 | 0.546 | 0.61 | 0.473 | 0.477 | 0.476 | 0.534 | 0.491 | 0.588 | 0.632 | 0.615 | 0.611 | 0.571 | 0.699 | 0.402 | 0.518 | 0.616 | 0.493
SW 1573 | 0.461 | 0.502 | 0.513 | 0.409 | 0.651 | 0.853 | 0.859 | 0.858 | 0.868 | 0.861 | 0.402 | 0.421 | 0.435 | 0.348 | 0.386 | 0.65 | 0.908 | 0.6 | 0.702 | 1.02
UMC-11 | 0.423 | 0.481 | 0.492 | 0.493 | 0.492 | 0.808 | 0.787 | 0.838 | 0.876 | 0.822 | 0.334 | 0.34 | 0.346 | 0.343 | 0.348 | 0.449 | 0.422 | 0.478 | 0.383 | 0.431
